Some test systems named below: SN12C renal; HL-60(TB) leukemia; ACHN renal; OVCAR-4 ovarian; 786-0 renal; DU-145 prostate; U251 CNS; HOP-92 NSCLC; A549 NSCLC; SNB-19 CNS.
Assay in all cases: NCI tumour cell line growth inhibition, 48 h

Values joined by “and” are separate entries in the source; they are usually repeats but may differ in a detail not shown here. Equal entries are not always repeated.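 Method: 48-hour compound exposure of cells in 96-well plates, five concentrations, linear interpolation of endpoints. The concentration for 50% growth inhibition is given as GI50. At the TGI there is no net growth.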

For the molecule `Cn1ncc2c(Nc3ccc(Br)cc3)nc(Nc3ccc(Br)cc3)nc21`, the GI50 in the test with SN12C renal is 3.28 µM; with HL-60(TB) leukemia, 1.44 µM; with ACHN renal, 3.74 µM; with OVCAR-4 ovarian, 3.51 µM; in the test on 786-0 renal it was 2.4 µM; in the test with DU-145 prostate it was 3.65 µM. Also, the GI50 is 2.89 µM in the test with U251 CNS, 1.66 µM in the test with HOP-92 NSCLC, 4.46 µM in the test on A549 NSCLC and 6.42 µM with SNB-19 CNS. In addition, the TGI is 12.9 µM in the test on SN12C renal; 5.85 µM with HL-60(TB) leukemia; 13 µM with ACHN renal; 16.1 µM with OVCAR-4 ovarian; 5.32 µM in the test on 786-0 renal; 13 µM in the test on DU-145 prostate. Moreover, the TGI in the test with U251 CNS amounted to 10 µM; in the test with HOP-92 NSCLC, 5.23 µM; with A549 NSCLC, 30.8 µM; in the test on SNB-19 CNS, 18.9 µM.

For `COc1cc(OC)c(-c2cc(=O)c3c(OC)c(OC)c(OC)c(OC)c3o2)cc1OC`, the TGI with SN12C renal was more than 100 µM; in the test on HL-60(TB) leukemia, more than 64.6 µM; in the test with ACHN renal, more than 100 µM; in the test on OVCAR-4 ovarian, more than 100 µM; with 786-0 renal it was more than 100 µM; in the test with DU-145 prostate, more than 100 µM. The TGI is more than 100 µM in the test with U251 CNS, 59 µM in the test with HOP-92 NSCLC, more than 100 µM in the test with A549 NSCLC and more than 100 µM with SNB-19 CNS.

Regarding `CCCOC(=O)N[C@H]1CCc2c(Br)c(OC)c(OC)c(OC)c2-c2ccc(SC)c(=O)cc21`, the GI50 is 0.0437 µM with SN12C renal; 0.0245 µM with HL-60(TB) leukemia; 0.0431 µM in the test on ACHN renal; 0.158 µM in the test with OVCAR-4 ovarian; 0.0407 µM in the test on 786-0 renal; 0.0305 µM in the test on DU-145 prostate. In addition, the GI50 in the test on U251 CNS was 0.0363 µM; in the test with HOP-92 NSCLC, 0.0411 µM; with A549 NSCLC, 0.0395 µM; with SNB-19 CNS, 0.0425 µM. The TGI was 17.3 µM with SN12C renal; 0.0784 µM in the test on HL-60(TB) leukemia; 30.4 µM with ACHN renal; more than 100 µM in the test with OVCAR-4 ovarian; 11.4 µM with 786-0 renal; 0.234 µM in the test with DU-145 prostate. Also, the TGI in the test on U251 CNS was 15.1 µM; with HOP-92 NSCLC, 6.28 µM; with A549 NSCLC, more than 68.4 µM; in the test on SNB-19 CNS, more than 100 µM.

For `COc1ccccc1-c1cc2c3c(nc4ccccc42)C(=O)c2cccnc2-c3n1`, the GI50 is 14.5 µM in the test on SN12C renal; more than 100 µM with HL-60(TB) leukemia; 13.7 µM with ACHN renal; 13.5 µM in the test on OVCAR-4 ovarian; 15.5 µM in the test with 786-0 renal; 13.8 µM in the test on DU-145 prostate. Besides, the GI50 in the test with U251 CNS was 3.77 µM; in the test with HOP-92 NSCLC, 19.1 µM; in the test with A549 NSCLC, 10 µM; with SNB-19 CNS, 17.4 µM. Moreover, the TGI with SN12C renal was 30.1 µM; in the test on HL-60(TB) leukemia it was more than 100 µM; in the test with ACHN renal it was 30.1 µM; in the test with OVCAR-4 ovarian it was 38.7 µM; in the test with 786-0 renal, 29.7 µM; in the test with DU-145 prostate, 28.5 µM. The TGI is 11.4 µM in the test with U251 CNS, more than 100 µM in the test on HOP-92 NSCLC, 24 µM with A549 NSCLC and 33.8 µM with SNB-19 CNS.

For `C[C@@H]1O[C@@H](O[C@H]2C[C@@H](O)[C@]3(CO)C4C(CC[C@]3(O)C2)[C@@]2(O)CC[C@H](C3=CC(=O)OC3)[C@@]2(C)C[C@H]4O)[C@H](O)[C@H](O)[C@H]1O` (stereo not given in full), the GI50 in the test with SN12C renal is 0.0178 µM; in the test on HL-60(TB) leukemia, 0.013 µM; in the test with ACHN renal, 0.0148 µM; in the test with OVCAR-4 ovarian, 0.0116 µM; in the test with 786-0 renal, 0.018 µM; with DU-145 prostate, 0.0104 µM. In addition, the GI50 in the test with U251 CNS was 0.025 µM; with HOP-92 NSCLC, 0.0597 µM; with A549 NSCLC, 0.00907 µM; in the test with SNB-19 CNS, 0.0605 µM. Moreover, the TGI with SN12C renal was found to be 0.0844 µM; in the test with HL-60(TB) leukemia it was 0.0318 µM; in the test on ACHN renal, 0.0461 µM; in the test on OVCAR-4 ovarian, 0.0308 µM; in the test on 786-0 renal, 0.0687 µM; in the test with DU-145 prostate, 0.02 µM. For the same molecule, the TGI with U251 CNS was found to be 0.0839 µM; in the test with HOP-92 NSCLC, 0.25 µM; in the test on A549 NSCLC, 0.0172 µM; with SNB-19 CNS it was 0.125 µM.

As for `COc1ccc2c(c1)C(=O)c1c-2c(NCCCN(C)C)nc2ccccc12`, the GI50 with SN12C renal is 2.26 µM; in the test on HL-60(TB) leukemia, 2.63 µM; in the test on ACHN renal it was 1.11 µM; in the test with OVCAR-4 ovarian, 0.898 µM; in the test with 786-0 renal, 4.24 µM; in the test on DU-145 prostate, 6.67 µM. Moreover, the GI50 was 1.98 µM with U251 CNS, 1.15 µM with HOP-92 NSCLC, 1.86 µM in the test with A549 NSCLC and 7.44 µM in the test on SNB-19 CNS. The TGI with SN12C renal amounted to 6.84 µM; in the test with HL-60(TB) leukemia, 12.3 µM; with ACHN renal, 2.31 µM; in the test with OVCAR-4 ovarian it was 16.4 µM; in the test on 786-0 renal, 18.7 µM; in the test with DU-145 prostate it was 19.5 µM. In addition, the TGI was determined as 4.42 µM in the test on U251 CNS, 8.6 µM in the test on HOP-92 NSCLC, 6 µM in the test with A549 NSCLC and 21.2 µM in the test with SNB-19 CNS.

Regarding `Cc1oc2ccccc2c(=O)c1Cn1nnc2ccccc21`, the TGI with SN12C renal, with HL-60(TB) leukemia, with ACHN renal, with OVCAR-4 ovarian, with 786-0 renal and with DU-145 prostate was more than 100 µM each time. Also, the TGI in the test on U251 CNS was more than 100 µM; with HOP-92 NSCLC, 87.4 µM; with A549 NSCLC it was more than 100 µM; in the test with SNB-19 CNS, more than 100 µM.

`COC1/C=C/O[C@@]2(C)Oc3c(C)c(O)c4c(O)c(cc(O)c4c3C2=O)NC(=O)/C(C)=C\C=C\[C@H](C)C(O)[C@@H](C)[C@@H](O)[C@@H](C)[C@H](OC(C)=O)[C@@H]1C` (stereo not given in full): the GI50 in the test with SN12C renal was 11.9 µM; with HL-60(TB) leukemia, 6.07 µM and 5.19 µM; in the test with ACHN renal it was 16.9 µM; in the test with OVCAR-4 ovarian it was 16 µM; with 786-0 renal it was 4.29 µM; in the test on DU-145 prostate, 12.3 µM. Also, the GI50 is 16.5 µM in the test with U251 CNS; 12 µM in the test on HOP-92 NSCLC; 16.8 µM and 58.5 µM in the test with A549 NSCLC; 51.8 µM with SNB-19 CNS. In addition, the TGI is 24.6 µM and 33.9 µM in the test on SN12C renal; 27.4 µM and 18 µM in the test with HL-60(TB) leukemia; 30.5 µM and 41.9 µM in the test with ACHN renal; 30.6 µM and 28.3 µM in the test on OVCAR-4 ovarian; 15.9 µM and 29.5 µM in the test on 786-0 renal; 26.8 µM and 54.5 µM in the test on DU-145 prostate. The TGI in the test with U251 CNS is 30.1 µM and 116 µM; in the test with HOP-92 NSCLC, 24.3 µM and 23.6 µM; in the test on A549 NSCLC, 31.3 µM and 143 µM; with SNB-19 CNS it was 220 µM.

On to `O=C1Nc2ccc(F)c3c(OCCO)cc(-c4ccc[nH]4)c1c23`, for which the GI50 was 1.11 µM in the test with SN12C renal; 1.14 µM in the test on HL-60(TB) leukemia; 0.608 µM with ACHN renal; 1.44 µM in the test on OVCAR-4 ovarian; 2.44 µM in the test on 786-0 renal; 1.97 µM with DU-145 prostate. Moreover, the GI50 was 0.9 µM with U251 CNS, 0.908 µM in the test on HOP-92 NSCLC, 1.21 µM in the test on A549 NSCLC and 3.66 µM in the test on SNB-19 CNS. For the same molecule, the TGI worked out at 9.83 µM in the test with SN12C renal; 7.44 µM in the test on HL-60(TB) leukemia; 7.2 µM with ACHN renal; 12.1 µM in the test on OVCAR-4 ovarian; 9.26 µM with 786-0 renal; 10.3 µM in the test on DU-145 prostate. Besides, the TGI in the test on U251 CNS worked out at 6.3 µM; with HOP-92 NSCLC it was 5.4 µM; with A549 NSCLC, 8.57 µM; in the test on SNB-19 CNS, 14.9 µM.

For `O=C1Nc2ccc(Cl)cc2/C1=C\c1c(-c2ccc(F)cc2)nc2ccccn12`, the GI50 in the test on SN12C renal was 2.88 µM; in the test with HL-60(TB) leukemia it was 1.88 µM; in the test on ACHN renal, 3.25 µM; in the test with OVCAR-4 ovarian, 2.3 µM; in the test with 786-0 renal it was 2.18 µM; with DU-145 prostate, 2.67 µM. The GI50 in the test with U251 CNS is 2.05 µM; with HOP-92 NSCLC, 1.86 µM; with A549 NSCLC, 2.14 µM; in the test on SNB-19 CNS, 3.33 µM. The TGI in the test on SN12C renal turned out to be 10.8 µM; in the test with HL-60(TB) leukemia it was 4.48 µM; with ACHN renal it was 11.4 µM; in the test with OVCAR-4 ovarian it was 7.23 µM; with 786-0 renal, 5.2 µM; in the test on DU-145 prostate it was 7.15 µM. The TGI is 5.13 µM with U251 CNS, 7.1 µM in the test on HOP-92 NSCLC, 5.17 µM with A549 NSCLC and 27.4 µM in the test with SNB-19 CNS.

Consider `COc1ccc(C2C3=C(NC(=O)C2C#N)c2ccc4ccccc4c2OCC3)cc1` (stereo not given), for which the GI50 was 23.9 µM with SN12C renal; 65.8 µM in the test on HL-60(TB) leukemia; 21.9 µM with ACHN renal; more than 100 µM in the test on OVCAR-4 ovarian; 30.2 µM with 786-0 renal; 31.4 µM with DU-145 prostate. Further, the GI50 is 23.6 µM in the test with U251 CNS, 11.4 µM with HOP-92 NSCLC, 38.9 µM in the test with A549 NSCLC and 58.8 µM in the test with SNB-19 CNS. The TGI in the test with SN12C renal is 56.5 µM; with HL-60(TB) leukemia it was more than 100 µM; in the test on ACHN renal it was 59.5 µM; with OVCAR-4 ovarian it was more than 100 µM; with 786-0 renal, 86.4 µM; in the test on DU-145 prostate, more than 100 µM. Further, the TGI is 54.2 µM with U251 CNS, 43.4 µM in the test with HOP-92 NSCLC, more than 100 µM with A549 NSCLC and more than 100 µM in the test with SNB-19 CNS.
